Experimental findings from US9120805B2, “Substituted pyrrolo[1,2-A]pyrazin-1-ones and pyrazolo[1,5-A]pyrazin-4-ones as inhibitors of tankyrase and poly(ADP-ribose)polymerase activity” (Merck Patent GmbH, priority 2012, dated 2015) are described below.

In assay [1] the target is T1, GST-tagged Tankyrase-1 (1023-1327 aa) (Homo sapiens, UniProt O95271).
T1 construct: GST-tagged Tankyrase-1 (1023-1327 aa)
Kind of assay: Tankyrase 1 autoparsylation assay (HTRF enzyme assay). The assay is classed as biochemical. As to the method: (§1) Biochemical Activity Testing of Tankyrase 1 and 2: Autoparsylation Assay
(§2) The autoparsylation assay is run in two steps: the enzymatic reaction in which GST-tagged Tankyrase-1, resp Tankyrase-2 transferred biotinylated ADP-ribose to itself from biotinylated NAD as co-substrate and the detection reaction where a time resolved FRET between cryptate labelled anti-GST bound to the GST tag of the enzyme and Xlent® labelled-streptavidin bound the biotin-parsylation residue is analysed. The autoparsylation activity was detectable directly via the increase in HTRF signal.
(§3) The autoparsylation assay is performed as 384-well HTRF® (Cisbio, Codolet, France) assay format in Greiner low volume nb 384-well microtiter plates and is used for high throughput screen. 250 nM GST-tagged Tankyrase-1 (1023-1327 aa), respectively about 250 nM GST-tagged Tankyrase-2 (873-1166 aa) and 5 μM bio-NAD (Biolog, Life science Inst., Bremen, Germany) as co-substrate are incubated in a total volume of 5 μl (50 mM HEPES, 4 mM Mg-chloride, 0.05% Pluronic F-68, 1.4 mM DTT, 0.5% DMSO, pH 7.7) in the absence or presence of the test compound (10 dilution concentrations) for 90 min at 30° C. The reaction is stopped by the addition of 1 μl 50 mM EDTA solution. 2 μl of the detection solution (1.6 μM SA-Xlent® (Cisbio, Codolet, France), 7.4 nM Anti-GST-K® (Eu-labelled anti-GST, Cisbio, Codolet, France) in 50 mM HEPES, 800 mM KF, 0.1% BSA, 20 mM EDTA, 0.1% CHAPS, pH 7.0) are added. After 1 h incubation at room temperature the HTRF is measured with an Envision multimode reader (Perkin Elmer LAS Germany GmbH) at excitation wavelength 340 nm (laser mode) and emission wavelengths 615 nm and 665 nm. The ratio of the emission signals is determined. The full value used is the inhibitor-free reaction. The pharmacological zero value used is XAV-939 (Tocris) in a final concentration of 5 μM. The inhibitory values (IC50) are determined using either the program Symyx Assay Explorer® or Condosseo® from GeneData.
(Time-resolved FRET reads energy transfer from a long-lived donor to a nearby acceptor.)

The target in assay [2] is T2, GST-tagged Tankyrase-2 (873-1166 aa) (Homo sapiens, UniProt Q9H2K2).
T2 construct: GST-tagged Tankyrase-2 (873-1166 aa)
Briefly: Tankyrase 2 autoparsylation assay (HTRF enzyme assay). It counts as biochemical. As to the method:
as §1, §2, §3

In assay [3] the target is T3, His-tagged Parp-1 (Homo sapiens, UniProt P09874).
T3 construct: purchased Enzo Life Sciences GmbH
Briefly: PARP-1 autoparsylation assay (HTRF). It counts as biochemical. The note with it: PARP-1 autoparsylation HTRF assay. From the text: Description of the PARP1 Assay
Biochemical Activity Testing of PARP-1: Autoparsylation Assay
The autoparsylation assay is run in two steps: the enzymatic reaction in which
His-tagged Parp-1 transfers biotinylated ADP-ribose/ADP-ribose to itself from biotinylated NAD/NAD as co-substrate and the detection reaction where a time resolved FRET between cryptate labelled anti-His antibody bound to the His tag of the enzyme and Xlent® labelled-streptavidin bound the biotin-parsylation residue is analysed. The autoparsylation activity is detectable directly via the increase in HTRF signal.
The autoparsylation assay is performed as 384-well HTRF® (Cisbio, Codolet, France) assay format in Greiner low volume nb 384-well microtiter plates. 35 nM His-tagged Parp-1 (human, recombinant, Enzo Life Sciences GmbH, Lörrach, Germany) and a mixture of 125 nM bio-NAD (Biolog, Life science Inst., Bremen, Germany) and 800 nM NAD as co-substrate are incubated in a total volume of 6 μl (100 mM Tris/HCl, 4 mM Mg-chloride, 0.01% IGEPAL® CA630, 1 mM DTT, 0.5% DMSO, pH 8, 13 ng/μl activated DNA (BPS Bioscience, San Diego, US)) in the absence or presence of the test compound (10 dilution concentrations) for 150 min at 23° C. The reaction is stopped by the addition of 4 μl of the Stop/detection solution (70 nM SA-Xlent® (Cisbio, Codolet, France), 2.5 nM Anti-His-K® (Eu-labelled anti-His, Cisbio, Codolet, France) in 50 mM HEPES, 400 mM KF, 0.1% BSA, 20 mM EDTA, pH 7.0). After 1 h incubation at room temperature the HTRF is measured with an Envision multimode reader (Perkin Elmer LAS Germany GmbH) at excitation wavelength 340 nm (laser mode) and emission wavelengths 615 nm and 665 nm. The ratio of the emission signals is determined. The full value used is the inhibitor-free reaction. The pharmacological zero value used is Olaparib (LClabs, Woburn, US) in a final concentration of 1 μM. The inhibitory values (IC50) are determined using either the program Symyx Assay Explorer® or Condosseo® from GeneData.

Assay [4] concerns tankyrase 1/2. Kind of assay: Cellular inhibition of Tankyrase: increase of Axin2 level in DLD1 cells (Luminex). The assay is classed as cell-based. Conditions: 24 hours, read-out: EC50 tankyrase 1/2 (cell assay). As to the method: Measurement of Cellular Inhibition of Tankyrase
Since Tankyrases have been described to modulate cellular level of Axin2 (Huang et al., 2009; Nature) the increase of Axin2 level is used as read-out for determination of cellular inhibition of Tankyrases in a Luminex based assay.
Cells of the colon carcinoma cell line DLD1 are plated in 96 well plates with 1.5×10^4 cells per well. Next day, cells are treated with a serial dilution of test compound in seven steps as triplicates with a final DMSO concentration of 0.3%. After 24 hours, cells are lysed in lysis buffer (20 mM Tris/HCl pH 8.0, 150 mM NaCl, 1% NP40, 10% Glycerol) and lysates are cleared by centrifugation through a 96 well filter plate (0.65 μm). Axin2 protein is isolated from cell lysates by incubation with a monoclonal anti-Axin2 antibody (R&D Systems #MAB6078) that is bound to fluorescent carboxybeads. Then, bound Axin2 is specifically detected with a polyclonal anti-Axin2 antibody (Cell Signaling #2151) and an appropriate PE-fluorescent secondary antibody. The amount of isolated Axin2 protein is determined in a Luminex^200 machine (Luminex Corporation) according to the manufacturer's instruction by counting 100 events per well. Inhibition of Tankyrase by test compounds results in higher levels of Axin2 which directly correlates with an increase of detectable fluorescence. As controls cells are treated with solvent alone (neutral control) and with a Tankyrase reference inhibitor IWR-2 (3E-06 M) which refers as control for maximum increase of Axin2. For analysis, the obtained data are normalized against the untreated solvent control and fitted for determination of the EC50 values using the Assay Explorer software (Accelrys).

Where a name gives a salt, the structure may show the parent alone.

T1 sequence (O95271 1023-1327): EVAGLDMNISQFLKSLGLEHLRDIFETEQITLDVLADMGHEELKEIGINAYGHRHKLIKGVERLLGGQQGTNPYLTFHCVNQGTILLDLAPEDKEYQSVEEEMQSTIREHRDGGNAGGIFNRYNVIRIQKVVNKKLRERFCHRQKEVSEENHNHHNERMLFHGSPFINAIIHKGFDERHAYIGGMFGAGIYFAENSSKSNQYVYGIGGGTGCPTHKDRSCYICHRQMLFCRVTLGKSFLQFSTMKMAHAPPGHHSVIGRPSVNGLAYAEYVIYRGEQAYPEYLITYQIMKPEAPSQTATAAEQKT
T2 sequence (Q9H2K2 873-1166): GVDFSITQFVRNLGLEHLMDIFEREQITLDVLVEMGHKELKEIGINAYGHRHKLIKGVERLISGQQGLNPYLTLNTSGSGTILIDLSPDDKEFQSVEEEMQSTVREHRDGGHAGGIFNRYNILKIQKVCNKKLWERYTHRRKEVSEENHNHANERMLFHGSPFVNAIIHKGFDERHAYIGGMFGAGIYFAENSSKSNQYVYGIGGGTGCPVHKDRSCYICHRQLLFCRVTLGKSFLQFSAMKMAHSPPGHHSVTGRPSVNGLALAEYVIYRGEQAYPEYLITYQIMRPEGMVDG
T3 sequence (P09874 whole entry): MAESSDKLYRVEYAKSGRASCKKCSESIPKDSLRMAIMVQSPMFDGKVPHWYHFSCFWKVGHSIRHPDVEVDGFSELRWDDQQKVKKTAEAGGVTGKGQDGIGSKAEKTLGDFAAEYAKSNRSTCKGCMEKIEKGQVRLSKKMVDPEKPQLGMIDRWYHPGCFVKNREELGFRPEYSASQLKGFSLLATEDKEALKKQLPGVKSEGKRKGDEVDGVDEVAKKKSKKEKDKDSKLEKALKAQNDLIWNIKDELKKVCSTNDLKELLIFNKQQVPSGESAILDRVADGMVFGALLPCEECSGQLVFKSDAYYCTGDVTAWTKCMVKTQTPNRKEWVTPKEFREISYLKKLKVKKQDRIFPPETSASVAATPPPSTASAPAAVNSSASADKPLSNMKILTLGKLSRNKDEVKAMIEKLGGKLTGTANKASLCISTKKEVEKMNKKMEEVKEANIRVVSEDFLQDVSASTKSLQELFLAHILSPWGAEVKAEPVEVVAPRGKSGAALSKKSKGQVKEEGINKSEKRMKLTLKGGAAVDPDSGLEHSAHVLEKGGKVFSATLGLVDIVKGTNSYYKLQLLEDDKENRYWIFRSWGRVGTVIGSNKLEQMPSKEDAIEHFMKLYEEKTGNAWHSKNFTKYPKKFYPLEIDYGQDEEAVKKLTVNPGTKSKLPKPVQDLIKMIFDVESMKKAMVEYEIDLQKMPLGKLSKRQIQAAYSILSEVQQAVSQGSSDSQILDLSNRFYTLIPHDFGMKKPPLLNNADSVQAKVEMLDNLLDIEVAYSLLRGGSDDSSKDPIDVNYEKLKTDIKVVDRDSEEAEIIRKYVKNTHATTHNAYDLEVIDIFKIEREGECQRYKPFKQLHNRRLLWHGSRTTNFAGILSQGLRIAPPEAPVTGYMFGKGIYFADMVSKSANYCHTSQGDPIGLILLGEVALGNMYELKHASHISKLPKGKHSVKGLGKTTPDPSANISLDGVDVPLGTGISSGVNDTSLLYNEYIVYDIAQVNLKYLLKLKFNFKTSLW

Broadly, the IC50 is the concentration needed to halve the response being measured. High values mean lower potency, low ones higher potency. On to `O=c1[nH]c(-c2ccc(OCc3ccccc3)cc2)cn2cccc12` [Compound A1, 3-(4-benzyloxy-phenyl)-2H-pyrrolo[1,2-a]pyrazin-1-one], for which the IC50 was below 300 nM in assay [1], 300 to 3000 nM in assay [2] and 300 to 3000 nM in assay [3].

For the molecule `O=c1[nH]c(-c2cccc(Cl)c2)cn2cccc12` [Compound A3, 3-(3-chloro-phenyl)-2H-pyrrolo[1,2-a]pyrazin-1-one], the IC50 in assay [1], in assay [2] and in assay [3] was 300 to 3000 nM throughout.

`COc1cccc(-c2cn3cccc3c(=O)[nH]2)c1` [Compound A4, 3-(3-methoxy-phenyl)-2H-pyrrolo[1,2-a]pyrazin-1-one]: the IC50 in assay [1], in assay [2] and in assay [3] was 300 to 3000 nM in each case.

As for `O=c1[nH]c(-c2ccc([N+](=O)[O-])cc2)cn2cccc12` [Compound A6, 3-(4-nitro-phenyl)-2H-pyrrolo[1,2-a]pyrazin-1-one], the 50% inhibitory concentration (IC50) was below 300 nM in assay [1], below 300 nM in assay [2] and 300 to 3000 nM in assay [3].

In the case of `COc1ccc(-c2cn3cccc3c(=O)[nH]2)cc1` [Compound A7, 3-(4-methoxy-phenyl)-2H-pyrrolo[1,2-a]pyrazin-1-one], the IC50 in assay [1] is below 300 nM; in assay [2], 300 to 3000 nM; in assay [3], 300 to 3000 nM. For the same molecule, the EC50 in assay [4] was 3000 to 50000 nM.

With `COc1ccc(-c2cn3cccc3c(=O)[nH]2)cc1OC` [Compound A8, 3-(3,4-dimethoxy-phenyl)-2H-pyrrolo[1,2-a]pyrazin-1-one], the results for the half-inhibitory concentration (IC50) in assay [1], in assay [2] and in assay [3] were 300 to 3000 nM, 3000 to 50000 nM and 3000 to 50000 nM, respectively.

With `O=c1[nH]c(-c2ccc3c(c2)OCO3)cn2cccc12` [Compound A9, 3-benzo[1,3]dioxol-5-yl-2H-pyrrolo[1,2-a]pyrazin-1-one], the IC50 in assay [1] lay in the range of 300 to 3000 nM; in assay [2] it was 300 to 3000 nM; in assay [3], 3000 to 50000 nM.

Take `O=c1[nH]c(-c2ccc(F)cc2)cn2cccc12` [Compound A10, 3-(4-fluoro-phenyl)-2H-pyrrolo[1,2-a]pyrazin-1-one]: the IC50 in assay [1], in assay [2] and in assay [3] was 300 to 3000 nM throughout.

Take `O=c1[nH]c(-c2ccc(C(F)(F)F)cc2)cn2cccc12` [Compound A13, 3-(4-trifluoromethyl-phenyl)-2H-pyrrolo[1,2-a]pyrazin-1-one]: the IC50 is 300 to 3000 nM in assay [1], below 300 nM in assay [2] and 300 to 3000 nM in assay [3]. Moreover, the EC50 in assay [4] was 300 to 3000 nM.

For the molecule `CC(C)(C)c1ccc(-c2cn3nc(CF)cc3c(=O)[nH]2)cc1` [Compound A64, 6-(4-tert-butyl-phenyl)-2-fluoromethyl-5H-pyrazolo[1,5-a]pyrazin-4-one], the results for the IC50 in assay [1] and in assay [2] were below 300 nM and 300 to 3000 nM, respectively. For the same molecule, in assay [4], the EC50 is 300 to 3000 nM.

On to `CC(C)(C)c1ccc(-c2cn3nc(C(F)F)cc3c(=O)[nH]2)cc1` [Compound A66, 6-(4-tert-butyl-phenyl)-2-difluoromethyl-5H-pyrazolo[1,5-a]pyrazin-4-one], for which the IC50 is below 300 nM in assay [1] and 300 to 3000 nM in assay [2]. In addition, the EC50 in assay [4] was 300 to 3000 nM.

`CC(C)(O)c1ccc(-c2cn3nc(C(F)(F)F)cc3c(=O)[nH]2)cc1` [Compound A69, 6-[4-(1-hydroxy-1-methyl-ethyl)phenyl]-2-trifluoromethyl-5H-pyrazolo[1,5-a]pyrazin-4-one]: the IC50 in assay [1] lay in the range of 300 to 3000 nM; in assay [2] it was 3000 to 50000 nM. The EC50 in assay [4] was in the range of 3000 to 50000 nM.

As to `O=c1[nH]c(-c2ccc(C3CCNCC3)cc2)cn2cc(F)cc12` [Compound A77, 7-fluoro-3-(4-piperidin-4-yl-phenyl)-2H-pyrrolo[1,2-a]pyrazin-1-one], the IC50 is below 300 nM in assay [1] and 300 to 3000 nM in assay [2]. For the same molecule, the EC50 in assay [4] lay within 300 to 3000 nM.

As for `CN1CCC(c2ccc(-c3cn4cc(Cl)cc4c(=O)[nH]3)cc2)CC1` [Compound A82, 7-chloro-3-[4-(1-methyl-piperidin-4-yl)-phenyl]-2H-pyrrolo[1,2-a]pyrazin-1-one], the values for the concentration for half-maximal inhibition (IC50) in assay [1] and in assay [2] were below 300 nM and 300 to 3000 nM, respectively. The EC50 in assay [4] was in the range of 300 to 3000 nM.

In the case of `O=c1[nH]c(-c2ccc(C3(O)CNC3)cc2)cn2cccc12` [Compound A86, 3-[4-(3-hydroxy-azetidin-3-yl)-phenyl]-2H-pyrrolo[1,2-a]pyrazin-1-one hydrochloride], the 50% inhibitory concentration (IC50) in assay [1] and in assay [2] was 300 to 3000 nM each time. Moreover, the EC50 in assay [4] was in the range of 3000 to 50000 nM.

Regarding `Cn1cc(-c2ccc(-c3cn4cc(F)cc4c(=O)[nH]3)cc2)cn1` [Compound A90], the IC50 in assay [1] is below 300 nM; in assay [2], 300 to 3000 nM. For the same molecule, the EC50 in assay [4] lay in the range of 300 to 3000 nM.

As to `Cc1cc2c(=O)[nH]c(-c3ccc(-c4cnn(C)c4)cc3)cn2c1` [Compound A91], the half-inhibitory concentration (IC50) in assay [1] is below 300 nM; in assay [2], 300 to 3000 nM. Also, the EC50 in assay [4] lay within 300 to 3000 nM.

For the molecule `Cc1ccc2c(=O)[nH]c(-c3ccc(Br)cc3)cn12` [Compound A94], the IC50 in assay [1] is below 300 nM; in assay [2] it was 300 to 3000 nM. In assay [4], the EC50 lay within 300 to 3000 nM.

For `O=c1[nH]c(-c2ccc(C3(O)CCNCC3)cc2)cn2cccc12` [Compound A99], the half-maximal inhibitory concentration (IC50) in assay [1] and in assay [2] was 300 to 3000 nM in each case. The EC50 in assay [4] was in the range of 3000 to 50000 nM.
